Calls of active or inactive are those of the source. The rule behind the calls is not given here.
Assays:
MCF7 [1] = test: Selectivity index, ratio of IC50 for human MCF10A cells to IC50 for human MCF7 cells; assay type: functional
[2] = Cytotoxicity against HEK cells at 0.25 to 64 ug after 72 hrs by MTT assay; assay type: cell-based; settings: human, hek293, 72 h
MCF7 [3] = test: Cytotoxicity against human MCF7 cells after 72 hrs by MTT assay; assay type: functional, cell-based; settings: MCF7, 72 h
MCF-10A [4] = test: Selectivity index, ratio of IC50 for human MCF10A cells to IC50 for human MDA-MB-231 cells; assay type: functional
MCF7 [5] = test: Cytotoxicity against human MCF7 cells after 48 hrs by SRB assay; assay type: functional; settings: MCF7, 48 h
MDA-MB-231 [6] = test: Cytotoxicity against human MDA-MB-231 cells after 48 hrs by SRB assay; assay type: functional; settings: MDA-MB-231, 48 h
MCF-10A [7] = test: Cytotoxicity against human MCF10A cells after 72 hrs by MTT assay; assay type: cell-based
MDA-MB-231 [8] = test: Cytotoxicity against human MDA-MB-231 cells after 72 hrs by MTT assay; assay type: functional, cell-based; settings: MDA-MB-231, 72 h
MCF7 [9] = test: Down regulation of MEK1 protein expression in human MCF7 cells at 2 to 4 uM after 24 hrs by Western blotting analysis; assay type: functional, cell-based
[10] = biological target: Mitogen-activated protein kinase; ERK1/ERK2 (Homo sapiens) (UniProt P27361+P28482); test: Inhibition of ERK1/2 phosphorylation in human MCF7 cells at 2 to 4 uM after 24 hrs by Western blotting analysis; assay type: cell-based
MCF7 [11] = test: Down regulation of VEGF protein expression in human MCF7 cells at 2 to 4 uM after 24 hrs by Western blotting analysis; assay type: functional, cell-based
MCF7 [12] = test: Down regulation of integrin alphaVbeta3 protein expression in human MCF7 cells at 2 to 4 uM after 24 hrs by Western blotting analysis
MCF7 [13] = test: Induction of apoptosis in human MCF7 cells assessed as increase in caspase-9 activity at 2 uM after 24 hrs by fluorescence assay
MCF7 [14] = test: Down regulation of Ras protein expression in human MCF7 cells at 2 to 4 uM after 24 hrs by Western blotting analysis; assay type: functional, cell-based
MCF7 [15] = test: Cytotoxicity against human MCF7 cells at 4 uM after 72 hrs by MTT assay; assay type: functional

Chain of Mitogen-activated protein kinase; ERK1/ERK2 (Homo sapiens) (P27361 whole entry, looked up): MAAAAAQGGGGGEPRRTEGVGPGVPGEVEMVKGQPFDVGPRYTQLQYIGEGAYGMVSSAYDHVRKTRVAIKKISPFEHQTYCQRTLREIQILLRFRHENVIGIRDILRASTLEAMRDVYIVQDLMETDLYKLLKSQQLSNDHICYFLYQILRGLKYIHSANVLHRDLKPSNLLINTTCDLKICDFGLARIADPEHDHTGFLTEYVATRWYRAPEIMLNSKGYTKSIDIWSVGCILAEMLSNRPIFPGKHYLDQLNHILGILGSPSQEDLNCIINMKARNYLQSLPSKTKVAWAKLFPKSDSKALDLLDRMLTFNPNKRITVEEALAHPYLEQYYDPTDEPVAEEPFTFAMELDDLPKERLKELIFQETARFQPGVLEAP
Chain of Mitogen-activated protein kinase; ERK1/ERK2 (Homo sapiens) (P28482 whole entry, looked up): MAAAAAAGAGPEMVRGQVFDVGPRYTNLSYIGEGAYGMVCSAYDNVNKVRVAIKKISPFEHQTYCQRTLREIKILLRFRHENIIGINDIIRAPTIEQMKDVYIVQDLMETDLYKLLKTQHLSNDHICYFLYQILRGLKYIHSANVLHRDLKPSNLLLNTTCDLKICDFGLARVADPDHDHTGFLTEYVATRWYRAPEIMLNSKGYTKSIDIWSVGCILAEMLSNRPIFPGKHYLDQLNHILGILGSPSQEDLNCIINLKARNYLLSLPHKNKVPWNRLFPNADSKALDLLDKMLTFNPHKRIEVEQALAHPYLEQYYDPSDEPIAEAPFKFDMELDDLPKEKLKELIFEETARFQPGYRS

Structure (SMILES) | Ratio IC50 (MCF7 [1]) | Activity [2] | IC50 (MCF7 [3]) | Ratio IC50 (MCF-10A [4]) | GI50 (MCF7 [5]) | GI50 (MDA-MB-231 [6]) | IC50 (MCF-10A [7]) | IC50 (MDA-MB-231 [8]) | Activity (MCF7 [9]) | inhibition [10] | Activity (MCF7 [11]) | Activity (MCF7 [12]) | Activity (MCF7 [13]) | Activity (MCF7 [14]) | Activity (MCF7 [15])
COc1ccc(-c2ccc(C)n2-c2ccc(-c3nc4ccccc4s3)cc2)cc1 | 11.13 | Non-toxic | 3.25 µM | 2.44 | 2.78 µM | 3.99 µM | 36.3 µM | 14.8 µM | – | – | – | – | – | – | –
COc1cc2nc(-c3ccc(-n4c(C)ccc4-c4ccc(C)cc4)cc3)sc2c(OC)c1OC | 13.66 | Non-toxic | 3.11 µM | 3.45 | 2.91 µM | 4.14 µM | 42.5 µM | 12.3 µM | – | – | – | – | – | – | –
COc1cc([C@@H]2c3cc4c(cc3[C@@H](O[C@@H]3O[C@@H]5CO[C@@H](C)O[C@H]5[C@H](O)[C@H]3O)[C@H]3COC(=O)[C@H]23)OCO4)cc(OC)c1O [ETOPOSIDE] | 30.21 | – | 1.2 µM | 24.17 | 0.87 µM | 1.67 µM | 36.3 µM | 1.5 µM | Active | Active | Active | Active | Active | Active | –
COc1cc(-c2ccc(C)n2-c2ccc(-c3nc4ccccc4s3)cc2)cc(OC)c1OC | 8.87 | Non-toxic | 4.37 µM | 2.42 | 2.34 µM | 3.45 µM | 38.8 µM | 16 µM | – | – | – | – | – | – | –
COc1ccc(-c2ccc(C)n2-c2ccc(-c3nc4ccc(OC)cc4s3)cc2)cc1 | 6.36 | Non-toxic | 4.83 µM | 2.23 | 3.09 µM | 4.12 µM | 30.6 µM | 12.7 µM | – | – | – | – | – | – | –
COc1cc(-c2ccc(C)n2-c2ccc(-c3nc4ccc(F)cc4s3)cc2)cc(OC)c1OC | 16.93 | Non-toxic | 2.36 µM | 2.6 | 1.41 µM | 3 µM | 40 µM | 15.4 µM | – | – | – | – | – | – | –
Cc1ccc(-c2ccc(F)cc2)n1-c1ccc(-c2nc3ccc(F)cc3s2)cc1 | 13.48 | Non-toxic | 2.8 µM | 2.68 | 1.79 µM | 3.03 µM | 37.8 µM | 14.1 µM | – | – | – | – | – | – | –
COc1ccc2nc(-c3ccc(-n4c(C)ccc4-c4ccc(C)cc4)cc3)sc2c1 | 11.92 | Non-toxic | 2.85 µM | 1.65 | 2.57 µM | 4.01 µM | 34 µM | 20.5 µM | – | – | – | – | – | – | –
Cc1ccc(-c2ccc([N+](=O)[O-])cc2)n1-c1ccc(-c2nc3ccc(F)cc3s2)cc1 | 16.4 | Non-toxic | 2.37 µM | 2.29 | 0.918 µM | 1.67 µM | 39 µM | 17 µM | – | – | – | – | – | – | –
Cc1ccc(-c2ccc(F)cc2)n1-c1ccc(-c2nc3ccccc3s2)cc1 | 12.57 | Non-toxic | 3.18 µM | 3.4 | 2.62 µM | 4.34 µM | 40 µM | 11.8 µM | – | – | – | – | – | – | –
COc1ccc2nc(-c3ccc(-n4c(C)ccc4-c4ccc(F)cc4)cc3)sc2c1 | 13.67 | Non-toxic | 2.8 µM | 2.77 | 2.48 µM | 4.06 µM | 38.3 µM | 13.8 µM | – | – | – | – | – | – | –
COc1ccc(-c2ccc(C)n2-c2ccc(-c3nc4ccc(F)cc4s3)cc2)cc1 | 14.85 | Non-toxic | 2.54 µM | 1.98 | 2.12 µM | 3.07 µM | 37.8 µM | 19 µM | – | – | – | – | – | – | –
Cc1ccc(-c2ccc([N+](=O)[O-])cc2)n1-c1ccc(-c2nc3ccccc3s2)cc1 | 12.47 | Non-toxic | 3.11 µM | 3.2 | 2.54 µM | 3.9 µM | 38.8 µM | 12.1 µM | – | – | – | – | – | – | –
COc1ccc2nc(-c3ccc(-n4c(C)ccc4-c4ccc([N+](=O)[O-])cc4)cc3)sc2c1 | 25.3 | Non-toxic | – | 2.74 | 3.17 µM | 4.56 µM | 34.9 µM | 12.7 µM | – | – | – | – | – | – | –
COc1cc2nc(-c3ccc(-n4c(C)ccc4-c4ccc(F)cc4)cc3)sc2c(OC)c1OC | 14.83 | Non-toxic | 2.91 µM | 3.29 | 2.67 µM | 3.94 µM | 43.2 µM | 13.1 µM | – | – | – | – | – | – | –
Cc1ccc(-c2ccc(C)n2-c2ccc(-c3nc4ccccc4s3)cc2)cc1 | 9.1 | Non-toxic | 3.1 µM | 1.71 | 2.5 µM | 4.4 µM | 30.6 µM | 17.8 µM | – | – | – | – | – | – | –
Cc1ccc(-c2ccc(C)n2-c2ccc(-c3nc4ccc(F)cc4s3)cc2)cc1 | 11.3 | Non-toxic | 2.97 µM | 2.01 | 2.15 µM | 3.14 µM | 33.6 µM | 16.7 µM | – | – | – | – | – | – | –
COc1ccc2nc(-c3ccc(-n4c(C)ccc4-c4cc(OC)c(OC)c(OC)c4)cc3)sc2c1 | 24.84 | Non-toxic | 1.52 µM | 2.92 | 0.92 µM | 1.76 µM | 37.8 µM | 12.9 µM | Active | Active | Active | Active | Active | Active | 50%
COc1ccc(-c2ccc(C)n2-c2ccc(-c3nc4cc(OC)c(OC)c(OC)c4s3)cc2)cc1 | 19.945 | Non-toxic | 2.2 µM | 3.5 | 1.23 µM | 2.24 µM | 43.9 µM | 12.5 µM | – | – | – | – | – | – | 50%
